Consider 2 compounds from PMC10272271, “MAM-2201 acute administration impairs motor, sensorimotor, prepulse inhibition, and memory functions in mice: a comparison with its analogue AM-2201” (Psychopharmacology, 2023).

One assay addresses T1, human CB1 receptors (Homo sapiens, UniProt P21554).
T1 construct: host or cells: CHO cells
The assay can be described thus: Cyclic AMP assay, hCB1 CHO cells. It counts as cell-based. Conditions: for agonist behaviour (inhibition of forskolin-stimulated cAMP production): CHO cells, human CB1. The method, then:
CHO cells transfected with human CB1 or CB2 receptors were washed with PBS, detached with trypsin, and centrifuged for 10 min at 200 × g. The pellet containing 1 × 10^6 cells/assay was suspended in 0.5 ml of buffer containing150 mM NaCl, 2.7 mM KCl, 0.37 mM NaH2PO4, 1 mM MgSO4, 1 mM CaCl2, 5 mM HEPES, 10 mM MgCl2, and 5 mM glucose, at pH 7.4 and 37 °C. Cells were pre-incubated with 0.5 mM of the phosphodiesterase inhibitor 4-(3-butoxy-4-methoxybenzyl)-2-imidazolidinone (Ro 20–1724;) for 10 min in a shaking bath at 37 °C. The potency of the examined compounds to inhibit adenylate cyclase activity was determined in the presence of forskolin 1-µM stimulation. The reaction was terminated by the addition of cold 6% trichloroacetic acid (TCA) and the final aqueous solution was tested for cyclic AMP levels by a competition protein binding assay (AlphaScreen cAMP Detection Kit, Cat. Number 6760635D, Perkin Elmer Life and Analytical Sciences, USA) following the manufacturer’s instructions; Vincenzi et al. [2013]).
The protein concentration was determined according to a Bio-Rad method (500–0006; Bio-Rad Laboratories, Hercules, CA, USA) with bovine serum albumin as a reference standard. Inhibitory binding constants, Ki, were calculated from the IC50 values according to the Cheng and Prusoff equation: Ki = IC50/(1 + [C*]/KD*), where [C*] is the concentration of the radioligand and KD* its dissociation constant. Functional experiments were analyzed by non-linear regression analysis using the equation for a sigmoid concentration–response curve (GraphPad Prism, USA). All the data are expressed as the mean ± SEM of three independent experiments.
(Cyclic AMP is a second messenger, typically raised through Gs and lowered through Gi signalling.)

The test system of assay [1] is CD-1 male mice. Details: method as in Bilel et al. [2020]. Conditions: ref Bilel et al. [2020]; cited from earlier work.
Assay [2] relates to CD-1 male mice. The assay can be described thus: Acoustic response test. Conditions: for acoustic response reduced to about: immediately after administration. It is filed as in vivo, mouse. The method, then: For the overall study 234 mice were used. In sensorimotor (visual object, visual placing, acoustic, and overall tactile responses) tests for MAM-2201, experiments for each treatment dose (vehicle or 5 different MAM-2201 doses, 0.01, 0.1, 1, 3, and 6 mg/kg) used 8 mice (total mice used: 48) and for MAM-2201 with AM-251 pretreatment, experiments for each dose regimen (vehicle + AM-251 or MAM-2201 + AM-251, 6 mg/kg) used 16 mice. In the analysis of spontaneous locomotion (open field test) for MAM-2201, experiments for each treatment regimen (vehicle or 4 different MAM-2201 doses, 0.01, 0.1, 1, and 6 mg/kg) used 10 mice (total mice used: 50). In the PPI test for MAM-2201, experiments for each treatment (vehicle or 3 different MAM-2201 doses, 0.01, 0.1, and 1 mg/kg) used 10 mice (total mice used: 40), while for MAM-2201 experiments in the Novel Object Recognition (NOR) test for each treatment regimen (vehicle or 3 different MAM-2201 and vehicle or 3 different AM-2201 doses, 0.01, 0.1, and 1 mg/kg) used 10 mice (total mice used: 80). In the present study the effect of MAM-2201 on sensorimotor responses was investigated using a battery of behavioral tests widely used in studies of “safety-pharmacology,” that we routinely adopted in our laboratory, for the preclinical characterization of new molecules in rodents (Ossato et al. [2015]; Vigolo et al. [2015]; Bilel et al. [2020]). The voluntary and involuntary motor responses of the animal to different visual, acoustic, and tactile stimuli were evaluated according to the procedure described in our previous studies (Ossato et al. [2015]; Bilel et al. [2020]). To reduce the number of animals used, mice were evaluated in functional observational tests carried out in a consecutive manner according to the following time scheme: observation of visual object responses (frontal and lateral view), acoustic response, tactile response (vibrissae, corneal and pinnae reflexes), and visual placing response. Sensorimotor tests were measured at 10, 30, 60, 120, 180, 240, and 300 min after injections for the evaluation of the visual object, acoustic and the tactile response, and at 15, 45, 75, 135, 195, 255, and 315 min after injections for the evaluation of visual placing response. Behavioral tests were conducted in a thermostated (temperature: 20–22 °C, humidity: 45–55%) and light (150 lx) controlled room with a background noise of 40 ± 4 dB. The apparatus for the visual object, acoustic and tactile sensorimotor tests consisted of an experimental chamber (350 × 350 × 350 mm) with black methacrylate walls and a transparent front door. During the week before the experiment, each mouse was placed in the box and handled (once a day) on every other day, i.e., 3 times, to get used to both the environment and the experimenter. To avoid olfactory cues, cages were carefully cleaned with a dilute (5%) ethanol solution and rinsed with water. All experiments were performed between 8:30 AM and 2:00 PM and conducted by trained observers working in pairs who were blinded to the treatment being tested (Ossato et al. [2015]). The behavior of mice was videotaped by a camera (B/W USB Camera day & night with varifocal lens; Ugo Basile, Italy) placed at the top or on one side of the box and analyzed off-line by a different trained operator. […] Sensory gating was evaluated by analysis of the pre-pulse inhibition (PPI) of the acoustic startle reflex as previously described (Bilel et al. [2020]). […]

Assay [3] deals with CD-1 male mice. The assay can be described thus: Overall tactile response (vibrissae, corneal, pinnae reflexes). It counts as in vivo, mouse. Here is the method:
For the overall study 234 mice were used. In sensorimotor (visual object, visual placing, acoustic, and overall tactile responses) tests for MAM-2201, experiments for each treatment dose (vehicle or 5 different MAM-2201 doses, 0.01, 0.1, 1, 3, and 6 mg/kg) used 8 mice (total mice used: 48) and for MAM-2201 with AM-251 pretreatment, experiments for each dose regimen (vehicle + AM-251 or MAM-2201 + AM-251, 6 mg/kg) used 16 mice. In the analysis of spontaneous locomotion (open field test) for MAM-2201, experiments for each treatment regimen (vehicle or 4 different MAM-2201 doses, 0.01, 0.1, 1, and 6 mg/kg) used 10 mice (total mice used: 50). In the PPI test for MAM-2201, experiments for each treatment (vehicle or 3 different MAM-2201 doses, 0.01, 0.1, and 1 mg/kg) used 10 mice (total mice used: 40), while for MAM-2201 experiments in the Novel Object Recognition (NOR) test for each treatment regimen (vehicle or 3 different MAM-2201 and vehicle or 3 different AM-2201 doses, 0.01, 0.1, and 1 mg/kg) used 10 mice (total mice used: 80). In the present study the effect of MAM-2201 on sensorimotor responses was investigated using a battery of behavioral tests widely used in studies of “safety-pharmacology,” that we routinely adopted in our laboratory, for the preclinical characterization of new molecules in rodents (Ossato et al. [2015]; Vigolo et al. [2015]; Bilel et al. [2020]). The voluntary and involuntary motor responses of the animal to different visual, acoustic, and tactile stimuli were evaluated according to the procedure described in our previous studies (Ossato et al. [2015]; Bilel et al. [2020]). To reduce the number of animals used, mice were evaluated in functional observational tests carried out in a consecutive manner according to the following time scheme: observation of visual object responses (frontal and lateral view), acoustic response, tactile response (vibrissae, corneal and pinnae reflexes), and visual placing response. Sensorimotor tests were measured at 10, 30, 60, 120, 180, 240, and 300 min after injections for the evaluation of the visual object, acoustic and the tactile response, and at 15, 45, 75, 135, 195, 255, and 315 min after injections for the evaluation of visual placing response. Behavioral tests were conducted in a thermostated (temperature: 20–22 °C, humidity: 45–55%) and light (150 lx) controlled room with a background noise of 40 ± 4 dB. […] The behavior of mice was videotaped by a camera (B/W USB Camera day & night with varifocal lens; Ugo Basile, Italy) placed at the top or on one side of the box and analyzed off-line by a different trained operator. […] Sensory gating was evaluated by analysis of the pre-pulse inhibition (PPI) of the acoustic startle reflex as previously described (Bilel et al. [2020]). […]

Assay [4] concerns CD-1 male mice. The assay can be described thus: Spontaneous locomotor activity (open field, ANY-maze). It counts as in vivo, mouse. Here is the method: For the overall study 234 mice were used. In sensorimotor (visual object, visual placing, acoustic, and overall tactile responses) tests for MAM-2201, experiments for each treatment dose (vehicle or 5 different MAM-2201 doses, 0.01, 0.1, 1, 3, and 6 mg/kg) used 8 mice (total mice used: 48) and for MAM-2201 with AM-251 pretreatment, experiments for each dose regimen (vehicle + AM-251 or MAM-2201 + AM-251, 6 mg/kg) used 16 mice. In the analysis of spontaneous locomotion (open field test) for MAM-2201, experiments for each treatment regimen (vehicle or 4 different MAM-2201 doses, 0.01, 0.1, 1, and 6 mg/kg) used 10 mice (total mice used: 50). […] The voluntary and involuntary motor responses of the animal to different visual, acoustic, and tactile stimuli were evaluated according to the procedure described in our previous studies (Ossato et al. [2015]; Bilel et al. [2020]). To reduce the number of animals used, mice were evaluated in functional observational tests carried out in a consecutive manner according to the following time scheme: observation of visual object responses (frontal and lateral view), acoustic response, tactile response (vibrissae, corneal and pinnae reflexes), and visual placing response. […] Sensory gating was evaluated by analysis of the pre-pulse inhibition (PPI) of the acoustic startle reflex as previously described (Bilel et al. [2020]). […]

T1 sequence (P21554 whole entry): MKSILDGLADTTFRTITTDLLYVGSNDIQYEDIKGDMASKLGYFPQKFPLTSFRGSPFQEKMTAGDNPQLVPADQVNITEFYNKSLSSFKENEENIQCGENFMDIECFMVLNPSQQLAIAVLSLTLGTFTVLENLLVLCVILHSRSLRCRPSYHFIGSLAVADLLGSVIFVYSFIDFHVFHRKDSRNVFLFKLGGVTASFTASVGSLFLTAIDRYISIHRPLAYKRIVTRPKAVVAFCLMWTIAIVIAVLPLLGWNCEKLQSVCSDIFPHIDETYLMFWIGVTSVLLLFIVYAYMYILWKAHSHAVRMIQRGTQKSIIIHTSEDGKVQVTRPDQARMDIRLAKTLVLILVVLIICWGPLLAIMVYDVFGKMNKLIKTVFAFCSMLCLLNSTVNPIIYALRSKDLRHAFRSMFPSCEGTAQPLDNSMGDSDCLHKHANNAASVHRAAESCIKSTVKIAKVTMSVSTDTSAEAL

As usually defined, the IC50 is the concentration that inhibits the measured activity by half. With `O=C(c1cccc2ccccc12)c1cn(CCCCCF)c2ccccc12` [AM-2201, 1-[(5-Fluoropentyl)-1H-indol-3-yl](1-naphthylenyl) methanone], on human CB1 receptors, the IC50 worked out at 2.84 ± 0.21 nM and the “agonist behaviour (inhibition of forskolin-stimulated cAMP production)” value is “full agonists”. In addition, in the assay on CD-1 male mice [1], the “time during which distance traveled was reduced” value is listed as “up to 45 min”.
For the compound `Cc1ccc(C(=O)c2cn(CCCCCF)c3ccccc23)c2ccccc12` [MAM-2201, 1-[(5-fluoropentyl)-1H-indol-3-yl](4-methyl-1-naphthalenyl) methanone], the “acoustic response reduced to about” value in the assay with CD-1 male mice [2] (1 mg/kg i.p.) was “about 20%”; in the assay with CD-1 male mice [2] (3 mg/kg i.p.), about 80%; in the assay with CD-1 male mice [2] (6 mg/kg i.p.), about 100%. In addition, the ED50 stood at 1.25 ± 0.013 mg/kg in the assay with CD-1 male mice [2] (Mus musculus, ip, mice, i.p., value ± SEM, acoustic response test, read-out: ED50 (mg/kg), Startle reflex) and 1.861 ± 0.011 mg/kg with CD-1 male mice [3] (Mus musculus, ip, mice, value ± SEM). The same compound yielded an IC50 at human CB1 receptors of 1.26 ± 0.56 nM. At human CB1 receptors, the “agonist behaviour (inhibition of forskolin-stimulated cAMP production)” value is on record as “full agonists”. The “effect on overall tactile response” value in the assay with CD-1 male mice [3] (1 mg/kg i.p., first hour after administration) was “slightly reduced”; with CD-1 male mice [3] (3 and 6 mg/kg i.p.) it was “deeper and more persistent effect”. Moreover, the “effect on immobility time” value with CD-1 male mice [4] (1 and 6 mg/kg i.p., first hour) is recorded as “increased”. Moreover, the “time during which motor capacity was affected” value in the assay with CD-1 male mice [4] (open field test) is at most 60 min.
